Test systems include A498 renal; EKVX NSCLC; HOP-62 NSCLC; KM12 colon; TK-10 renal; UACC-257 melanoma; UO-31 renal; DU-145 prostate; BT-549 breast; HS 578T breast.
What all share (experiment): growth of human tumour cells (NCI), 48 h

Molecules are shown by their SMILES. Values joined by “and” are separate entries in the source; they are usually repeats but may differ in a detail not shown here. Equal values may be shown once.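 Exposure lasted 48 hours, with cells grown in 96-well plates and compounds tested at five concentrations. Here, GI50 denotes the concentration required for 50% inhibition of growth. TGI denotes the concentration required for complete inhibition of growth.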

In the case of `CC1=C(O)C(=O)C2C(=O)C1C(C)C2c1ccccc1` (configuration not stated), the TGI with A498 renal, in the experiment with EKVX NSCLC, with HOP-62 NSCLC, in the experiment on KM12 colon, in the experiment with TK-10 renal and with UACC-257 melanoma was more than 100 µM each time. Besides, in the experiment on UO-31 renal, the TGI is more than 100 µM.

In the case of `O=C([O-])c1ccccc1Nc1ccccc1C(=O)[O-].[OH3+].[Zn+2]`, the TGI in the experiment with A498 renal was 44.7 µM; in the experiment on EKVX NSCLC, 65.8 µM; in the experiment on HOP-62 NSCLC, more than 58.5 µM; with KM12 colon, more than 100 µM; in the experiment with TK-10 renal it was more than 100 µM; in the experiment with UACC-257 melanoma it was 21.5 µM. The TGI with UO-31 renal was more than 63.1 µM.

`[N-]=[N+]=C1C(=O)C2CC3CC1CC2C3` (configuration not stated): the TGI with A498 renal, in the experiment on EKVX NSCLC, with HOP-62 NSCLC, in the experiment on KM12 colon, with TK-10 renal and in the experiment with UACC-257 melanoma was more than 100 µM in each case. In addition, the TGI with UO-31 renal is more than 100 µM.

Turning to `COC1CC(O[C@H]2CC[C@@]3(C)C(=CCC4(O)C3CCC35C(=O)OC6(C)O[C@@]43CCC65)C2)OC(C)C1O` (some centres not stated), the TGI in the experiment on A498 renal, in the experiment with EKVX NSCLC, with HOP-62 NSCLC, in the experiment with KM12 colon, in the experiment with TK-10 renal and in the experiment with UACC-257 melanoma was more than 100 µM throughout. Also, the TGI with UO-31 renal was more than 100 µM.

As to `CO/S(=N/S(=O)(=O)c1ccccc1)c1ccccc1[N+](=O)[O-]` (configuration not stated), the TGI in the experiment with EKVX NSCLC, in the experiment on HOP-62 NSCLC, in the experiment on KM12 colon, with UACC-257 melanoma and in the experiment on UO-31 renal was more than 100 µM in each case.

For the compound `CC1=C/C(=N\NS(=O)(=O)c2ccc([N+](=O)[O-])cc2)CC(C)(C)C1`, the TGI in the experiment with A498 renal, with DU-145 prostate, in the experiment on EKVX NSCLC, with HOP-62 NSCLC, with KM12 colon and in the experiment with TK-10 renal was more than 100 µM each time. Further, the TGI with UACC-257 melanoma and in the experiment on UO-31 renal was more than 100 µM in each case.

Consider `O=CC1=CCCN(CCc2c[nH]c3ccccc23)C1`, for which the TGI with EKVX NSCLC is 202 µM; in the experiment with HOP-62 NSCLC, 104 µM; in the experiment on KM12 colon, 128 µM; in the experiment on TK-10 renal it was 140 µM; in the experiment with UACC-257 melanoma it was 132 µM.

Turning to `COc1ccc2c(c1)C(=O)c1c-2n(CCCN=[N+]=[N-])c(=O)c2cc([N+](=O)[O-])ccc12`, the TGI with BT-549 breast was 1.3 µM; in the experiment on EKVX NSCLC, more than 100 µM; in the experiment with HS 578T breast, more than 100 µM; with KM12 colon, more than 100 µM; with TK-10 renal, 37.3 µM; in the experiment with UACC-257 melanoma, more than 100 µM. For the same compound, the TGI in the experiment with UO-31 renal turned out to be 2.22 µM. Besides, the GI50 was 16.2 µM in the experiment with HS 578T breast; 0.558 µM and 3.4 µM with KM12 colon; 15.2 µM in the experiment on TK-10 renal; less than 0.001 µM with UO-31 renal.

In the case of `O=c1c2ccccc2ncn1COCc1ccccc1`, the TGI in the experiment with A498 renal, with DU-145 prostate, with EKVX NSCLC, with KM12 colon, in the experiment on TK-10 renal and in the experiment on UACC-257 melanoma was more than 100 µM in each case. This compound also registered a TGI in the experiment with UO-31 renal of more than 100 µM.

As to `CSc1nc2nccnc2c(=O)[nH]1`, the TGI with A498 renal, in the experiment on EKVX NSCLC, in the experiment on HOP-62 NSCLC, in the experiment with TK-10 renal, with UACC-257 melanoma and with UO-31 renal was more than 100 µM each time.

`C/C(CC(O)(C(F)(F)F)C(F)(F)F)=N\NC(N)=S`: the TGI in the experiment with A498 renal, in the experiment with DU-145 prostate, in the experiment with EKVX NSCLC, with HOP-62 NSCLC, in the experiment on HS 578T breast and in the experiment on KM12 colon was more than 10 µM throughout. Besides, the TGI with TK-10 renal, in the experiment with UACC-257 melanoma and with UO-31 renal was more than 10 µM throughout.

As to `CCSC1=N/C(=C\c2ccco2)C(Nc2ccc(C)cc2)=N1`, the TGI with A498 renal, in the experiment with DU-145 prostate, in the experiment on EKVX NSCLC, in the experiment with HOP-62 NSCLC, in the experiment on HS 578T breast and in the experiment with KM12 colon was more than 100 µM throughout. Besides, the TGI in the experiment with TK-10 renal and in the experiment on UO-31 renal was more than 100 µM each time.

As to `CC1CN=C(N(C(=O)Nc2ccc(Cl)cc2)c2cccc(Cl)c2)S1` (configuration not stated), the TGI is 91.8 µM in the experiment on A498 renal; more than 100 µM in the experiment on DU-145 prostate; more than 100 µM in the experiment with EKVX NSCLC; more than 100 µM in the experiment on HOP-62 NSCLC; more than 100 µM in the experiment on HS 578T breast; more than 100 µM with KM12 colon. For the same compound, the TGI in the experiment with TK-10 renal was 62.1 µM; in the experiment with UACC-257 melanoma, more than 100 µM; with UO-31 renal it was more than 100 µM.

Take `CCCC(=O)Nc1cc(/C=C/C(=O)N2CC(CCl)c3ccc([N+](=O)[O-])cc32)n(C)c1` (configuration not stated): the TGI in the experiment with BT-549 breast, with DU-145 prostate, in the experiment with EKVX NSCLC, with HS 578T breast, in the experiment on KM12 colon and in the experiment with TK-10 renal was more than 100 µM each time. The TGI with UACC-257 melanoma and with UO-31 renal was more than 100 µM each time.

As for `CC1=C(C(=O)O)N2C(=O)[C@@H](NC(=O)C(c3ccccc3)N3CSC(=S)N(C(C)C)C3)C2SC1` (some centres not stated), the TGI in the experiment on A498 renal, in the experiment with EKVX NSCLC, in the experiment with HOP-62 NSCLC, in the experiment on KM12 colon, with TK-10 renal and in the experiment with UACC-257 melanoma was more than 100 µM throughout. Also, in the experiment on UO-31 renal, the TGI is more than 100 µM.

For `COc1nc2c(c(=O)[nH]1)N=C(c1ccccc1)CC(c1ccccc1)N2` (configuration not stated), the TGI with A498 renal, with BT-549 breast, with DU-145 prostate, in the experiment with EKVX NSCLC, in the experiment with HOP-62 NSCLC and with KM12 colon was more than 100 µM throughout. Moreover, the TGI with UACC-257 melanoma and in the experiment on UO-31 renal was more than 100 µM each time.

In the case of `CCCNC(=O)Cn1c2c(c3ccccc31)CCCC2`, the TGI in the experiment with A498 renal was more than 100 µM; with BT-549 breast, more than 100 µM; with EKVX NSCLC, more than 100 µM; in the experiment with HOP-62 NSCLC it was more than 100 µM; in the experiment with HS 578T breast, 68.8 µM; in the experiment on TK-10 renal, more than 100 µM. Moreover, the TGI in the experiment with UACC-257 melanoma is more than 100 µM; with UO-31 renal, 89.9 µM.

Values taken from PubChem BioAssay (NCI).
